Where two headings read alike, the source gives them in different places.
Experiments:
[1] = target: T1, urease (Canavalia ensiformis, UniProt P07374); experiment: biochemical; assay type: biochemical
Procedure: The inhibitory potential of the compounds was assessed using a slightly modified indophenol method ([Hina et al., 2023]). In 96-well plates, a mixture consisting of 50 µL urease, 30 µL buffer solution (phosphate buffer, sodium salicylate, sodium nitroprusside, and EDTA, pH 8.0), 10 µL urea substrate (100 mM), and 10 µL of the test compound (1 mM) was subjected to pre-incubation for 10 min at room temperature. Subsequently, an alkali reagent (70 µL) was promptly introduced into each well. Then, 30 min later, the absorbance at 630 nm for all samples was measured using a BioTek ELx800 instrument from BioTek Instruments, Inc., United States. The data were collected for all experiments performed in triplicate, and the percentage of inhibitory activities was assessed utilizing the following formula: Percentage of inhibition=100 – Absorbance of compound/Absorbance of control × 100.

[2] = target: T1, urease; experiment: Kinetic study (Lineweaver–Burk / Michaelis–Menten) of urease inhibition; assay type: biochemical; conditions: Lineweaver–Burk plots; 5j at 0, 2.55, 5.11, 7.65 μM
Description: By using Lineweaver–Burk graphs, we determined the mechanism of action of the leading compound 5j against urease. We evaluated the effect of the inhibitor on K m and V max using reciprocal 1/S and 1/V of the product concentration and calculated the inhibition type. The slope K m /V max of each line was schemed against different concentrations of the substrate and inhibitor. In kinetic studies of the potent compound, different concentrations of the compound and substrate were used. Different concentrations of 1 mM 5j were 0, 2.55, 5.11, and 7.65 μM, and different concentrations of the substrate were 0, 25, 50, 100, and 150 mM.
The type of inhibitory action was determined by using […] different concentrations of the substrate (0, 2.5, 5, 10, and 15 mM) in the absence and presence of different concentrations of inhibitor 5j (0, 2.55, 5.11, and 7.65 μM).

[3] = target: T1, urease; conditions: read-out: IC50 (urease); Figure 1; ref Khan et al., 2024; cited from earlier work

T1 sequence (P07374 whole entry, looked up): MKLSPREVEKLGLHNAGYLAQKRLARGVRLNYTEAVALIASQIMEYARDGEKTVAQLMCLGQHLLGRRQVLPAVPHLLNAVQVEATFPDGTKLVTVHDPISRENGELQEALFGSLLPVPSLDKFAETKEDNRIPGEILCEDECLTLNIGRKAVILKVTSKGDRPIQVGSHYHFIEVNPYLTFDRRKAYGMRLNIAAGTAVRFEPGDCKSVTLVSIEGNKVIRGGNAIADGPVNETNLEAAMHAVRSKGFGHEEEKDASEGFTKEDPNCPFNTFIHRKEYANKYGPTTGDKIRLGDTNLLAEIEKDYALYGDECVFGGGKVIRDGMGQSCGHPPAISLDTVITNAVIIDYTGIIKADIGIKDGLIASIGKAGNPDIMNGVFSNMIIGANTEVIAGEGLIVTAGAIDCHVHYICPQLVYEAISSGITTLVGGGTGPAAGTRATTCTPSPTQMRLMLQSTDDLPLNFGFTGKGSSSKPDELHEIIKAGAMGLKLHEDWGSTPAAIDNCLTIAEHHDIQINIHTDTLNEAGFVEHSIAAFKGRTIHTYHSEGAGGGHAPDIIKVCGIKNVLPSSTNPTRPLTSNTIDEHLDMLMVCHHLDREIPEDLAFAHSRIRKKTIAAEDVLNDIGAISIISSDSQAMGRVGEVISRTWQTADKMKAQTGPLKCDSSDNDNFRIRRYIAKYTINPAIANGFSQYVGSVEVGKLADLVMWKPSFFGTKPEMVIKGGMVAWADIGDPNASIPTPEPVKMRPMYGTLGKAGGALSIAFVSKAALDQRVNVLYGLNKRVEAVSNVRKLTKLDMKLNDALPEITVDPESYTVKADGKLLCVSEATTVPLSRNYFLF

O=C(CSC(=S)N1CCN(c2ncccc2[N+](=O)[O-])CC1)Nc1ccccc1 [Compound 5a, 2-Oxo-2-(phenylamino)ethyl 4-(3-nitropyridin-2-yl)piperazine-1-carbodithioate]
IC50 [1]: 18.7 ± 0.52 µM
melting point: 119 to 120 °C

O=C(CSC(=S)N1CCN(c2ncccc2[N+](=O)[O-])CC1)Nc1ccccc1Cl [Compound 5b, 2-((2-Chlorophenyl)amino)-2-oxoethyl 4-(3-nitropyridin-2-yl)piperazine-1-carbodithioate]
IC50 [1]: 41.03 ± 0.23 µM
melting point: 114 to 116 °C

O=C(CSC(=S)N1CCN(c2ncccc2[N+](=O)[O-])CC1)Nc1cccc(Cl)c1 [Compound 5c, 2-((3-Chlorophenyl)amino)-2-oxoethyl 4-(3-nitropyridin-2-yl)piperazine-1-carbodithioate]
IC50 [1]: 37.33 ± 0.19 µM
melting point: 121 to 122 °C

O=C(CSC(=S)N1CCN(c2ncccc2[N+](=O)[O-])CC1)Nc1ccc(Cl)cc1 [Compound 5d, 2-((4-Chlorophenyl)amino)-2-oxoethyl 4-(3-nitropyridin-2-yl)piperazine-1-carbodithioate]
IC50 [1]: 55.69 ± 0.2 µM
melting point: 143 to 144 °C

O=C(CSC(=S)N1CCN(c2ncccc2[N+](=O)[O-])CC1)Nc1cccc(Br)c1 [Compound 5e, 2-((3-Bromophenyl)amino)-2-oxoethyl 4-(3-nitropyridin-2-yl)piperazine-1-carbodithioate]
IC50 [1]: 32.53 ± 0.2 µM
melting point: 110 to 112 °C

O=C(CSC(=S)N1CCN(c2ncccc2[N+](=O)[O-])CC1)Nc1ccc(Br)cc1 [Compound 5f, 2-((4-Bromophenyl)amino)-2-oxoethyl 4-(3-nitropyridin-2-yl)piperazine-1-carbodithioate]
IC50 [1]: 21.3 ± 0.7 µM
melting point: 136 to 138 °C

O=C(CSC(=S)N1CCN(c2ncccc2[N+](=O)[O-])CC1)Nc1ccccc1[N+](=O)[O-] [Compound 5g, 2-((2-Nitrophenyl)amino)-2-oxoethyl 4-(3-nitropyridin-2-yl)piperazine-1-carbodithioate]
IC50 [1]: 16.84 ± 0.12 µM
melting point: 149 to 151 °C

O=C(CSC(=S)N1CCN(c2ncccc2[N+](=O)[O-])CC1)Nc1cccc([N+](=O)[O-])c1 [Compound 5h, 2-((3-Nitrophenyl)amino)-2-oxoethyl 4-(3-nitropyridin-2-yl)piperazine-1-carbodithioate]
IC50 [1]: 27 ± 2.15 µM
melting point: 174 to 175 °C

O=C(CSC(=S)N1CCN(c2ncccc2[N+](=O)[O-])CC1)Nc1ccc([N+](=O)[O-])cc1 [Compound 5i, 2-((4-Nitrophenyl)amino)-2-oxoethyl 4-(3-nitropyridin-2-yl)piperazine-1-carbodithioate]
IC50 [1]: 45.41 ± 0.23 µM
melting point: 168 to 169 °C

Cc1ccccc1NC(=O)CSC(=S)N1CCN(c2ncccc2[N+](=O)[O-])CC1 [Compound 5j, 2-Oxo-2-(o-tolylamino)ethyl 4-(3-nitropyridin-2-yl)piperazine-1-carbodithioate]
IC50 [1]: 5.16 ± 2.68 µM
type of inhibition against urease [2]: mixed type of inhibition

Cc1cccc(NC(=O)CSC(=S)N2CCN(c3ncccc3[N+](=O)[O-])CC2)c1 [Compound 5k, 2-Oxo-2-(m-tolylamino)ethyl 4-(3-nitropyridin-2-yl)piperazine-1-carbodithioate]
IC50 [1]: 18.3 ± 0.17 µM
melting point: 101 to 103 °C

Cc1ccc(NC(=O)CSC(=S)N2CCN(c3ncccc3[N+](=O)[O-])CC2)cc1 [Compound 5l, 2-Oxo-2-(p-tolylamino)ethyl 4-(3-nitropyridin-2-yl)piperazine-1-carbodithioate]
IC50 [1]: 10.6 ± 0.36 µM

COc1ccccc1NC(=O)CSC(=S)N1CCN(c2ncccc2[N+](=O)[O-])CC1 [Compound 5m, 2-((2-Methoxyphenyl)amino)-2-oxoethyl 4-(3-nitropyridin-2-yl)piperazine-1-carbodithioate]
IC50 [1]: 8.17 ± 0.37 µM

COc1ccc(NC(=O)CSC(=S)N2CCN(c3ncccc3[N+](=O)[O-])CC2)cc1 [Compound 5n, 2-((4-Methoxyphenyl)amino)-2-oxoethyl 4-(3-nitropyridin-2-yl)piperazine-1-carbodithioate]
IC50 [1]: 17.8 ± 0.29 µM
melting point: 151 to 153 °C

O=C(Nc1ccccc1)c1ccc(CSC(=S)N2CCN(c3ncccc3[N+](=O)[O-])CC2)cc1 [Compound 7a, 4-(Phenylcarbamoyl)benzyl 4-(3-nitropyridin-2-yl)piperazine-1-carbodithioate]
IC50 [1]: 11.7 ± 0.26 µM
melting point: 142 to 143 °C

O=C(Nc1ccccc1Cl)c1ccc(CSC(=S)N2CCN(c3ncccc3[N+](=O)[O-])CC2)cc1 [Compound 7b, 4-((2-Chlorophenyl)carbamoyl)benzyl 4-(3-nitropyridin-2-yl)piperazine-1-carbodithioate]
IC50 [1]: 32.53 ± 0.31 µM
melting point: 109 to 110 °C

O=C(Nc1cccc(Cl)c1)c1ccc(CSC(=S)N2CCN(c3ncccc3[N+](=O)[O-])CC2)cc1 [Compound 7c, 4-((3-Chlorophenyl)carbamoyl)benzyl 4-(3-nitropyridin-2-yl)piperazine-1-carbodithioate]
IC50 [1]: 10.8 ± 0.52 µM
melting point: 140 to 141 °C

O=C(Nc1ccc(Cl)cc1)c1ccc(CSC(=S)N2CCN(c3ncccc3[N+](=O)[O-])CC2)cc1 [Compound 7d, 4-((4-Chlorophenyl)carbamoyl)benzyl 4-(3-nitropyridin-2-yl)piperazine-1-carbodithioate]
IC50 [1]: 43.11 ± 0.31 µM
melting point: 147 to 148 °C

O=C(Nc1cccc(Br)c1)c1ccc(CSC(=S)N2CCN(c3ncccc3[N+](=O)[O-])CC2)cc1 [Compound 7e, 4-((3-Bromophenyl)carbamoyl)benzyl 4-(3-nitropyridin-2-yl)piperazine-1-carbodithioate]
IC50 [1]: 16.5 ± 0.28 µM
melting point: 141 to 142 °C

O=C(Nc1ccc(Br)cc1)c1ccc(CSC(=S)N2CCN(c3ncccc3[N+](=O)[O-])CC2)cc1 [Compound 7f, 4-((4-Bromophenyl)carbamoyl)benzyl 4-(3-nitropyridin-2-yl)piperazine-1-carbodithioate]
IC50 [1]: 16.8 ± 0.29 µM
melting point: 162 to 164 °C

O=C(Nc1ccccc1[N+](=O)[O-])c1ccc(CSC(=S)N2CCN(c3ncccc3[N+](=O)[O-])CC2)cc1 [Compound 7g, 4-((2-Nitrophenyl)carbamoyl)benzyl 4-(3-nitropyridin-2-yl)piperazine-1-carbodithioate]
IC50 [1]: 56.89 ± 0.31 µM
melting point: 133 to 134 °C

O=C(Nc1cccc([N+](=O)[O-])c1)c1ccc(CSC(=S)N2CCN(c3ncccc3[N+](=O)[O-])CC2)cc1 [Compound 7h, 4-((3-Nitrophenyl)carbamoyl)benzyl 4-(3-nitropyridin-2-yl)piperazine-1-carbodithioate]
IC50 [1]: 47.94 ± 0.25 µM
melting point: 165 to 166 °C

O=C(Nc1ccc([N+](=O)[O-])cc1)c1ccc(CSC(=S)N2CCN(c3ncccc3[N+](=O)[O-])CC2)cc1 [Compound 7i, 4-((4-Nitrophenyl)carbamoyl)benzyl 4-(3-nitropyridin-2-yl)piperazine-1-carbodithioate]
IC50 [1]: 10.5 ± 0.34 µM

Cc1ccccc1NC(=O)c1ccc(CSC(=S)N2CCN(c3ncccc3[N+](=O)[O-])CC2)cc1 [Compound 7j, 4-(o-Tolylcarbamoyl)benzyl 4-(3-nitropyridin-2-yl)piperazine-1-carbodithioate]
IC50 [1]: 12.3 ± 0.27 µM
melting point: 113 to 115 °C

Cc1cccc(NC(=O)c2ccc(CSC(=S)N3CCN(c4ncccc4[N+](=O)[O-])CC3)cc2)c1 [Compound 7k, 4-(m-Tolylcarbamoyl)benzyl 4-(3-nitropyridin-2-yl)piperazine-1-carbodithioate]
IC50 [1]: 10.7 ± 0.26 µM

Cc1ccc(NC(=O)c2ccc(CSC(=S)N3CCN(c4ncccc4[N+](=O)[O-])CC3)cc2)cc1 [Compound 7l, 4-(P-tolylcarbamoyl)benzyl 4-(3-nitropyridin-2-yl)piperazine-1-carbodithioate]
IC50 [1]: 37.54 ± 0.26 µM
melting point: 158 to 160 °C

COc1ccccc1NC(=O)c1ccc(CSC(=S)N2CCN(c3ncccc3[N+](=O)[O-])CC2)cc1 [Compound 7m, 4-((2-Methoxyphenyl)carbamoyl)benzyl 4-(3-nitropyridin-2-yl)piperazine-1-carbodithioate]
IC50 [1]: 18.7 ± 0.27 µM
melting point: 166 to 167 °C

COc1ccc(NC(=O)c2ccc(CSC(=S)N3CCN(c4ncccc4[N+](=O)[O-])CC3)cc2)cc1 [Compound 7n, 4-((4-Methoxyphenyl)carbamoyl)benzyl 4-(3-nitropyridin-2-yl)piperazine-1-carbodithioate]
IC50 [1]: 24 ± 0.27 µM
melting point: 187 to 189 °C

CN(Cc1ccccc1)C(=S)SCc1ccccc1 [S-benzyl substituted carbodithioate]
IC50 [3]: 750 ± 40 nM

NC(N)=S [Thiourea, thiourea, reference compound]
IC50 ([1]; indophenol method, urea substrate 100 mM, pH 8.0, triplicate, read-out: Urease inhibition: IC50 ± SEM): 23 ± 0.03 µM

— article PMC11333205, “Pyridylpiperazine-based carbodithioates as urease inhibitors: synthesis and biological evaluation” (Frontiers in Chemistry, 2024)
